Earlier results in patent US9291622B2, “Complement assays and uses thereof” (Apellis Pharmaceuticals, Inc., priority 2009, dated 2016).
[ ]: non-standard residue; d: D form. Trp(5-F) = N[C@@H](Cc1c[nH]c2ccc(F)cc12)C(=O)O; Trp(5-Me) = Cc1ccc2[nH]cc(C[C@H](N)C(=O)O)c2c1; Trp(6-F) = N[C@@H](Cc1c[nH]c2cc(F)ccc12)C(=O)O; Bpa = N[C@@H](Cc1ccc(C(=O)c2ccccc2)cc1)C(=O)O; 1Nal = N[C@@H](Cc1cccc2ccccc12)C(=O)O; 2Nal = N[C@@H](Cc1ccc2ccccc2c1)C(=O)O; Igl = N[C@H](C(=O)O)C1Cc2ccccc2C1; Dht = dihydrotryptophan

Test system: complement activation
Conditions: fold activity relative to compstatin (H-ICVVQDWGHHRCT-CONH2)

Substance	Activity over compstatin [× more]
Ac-ICV(1-Nal)QDWGAHRCT-COOH (Ac-ICV[1Nal]QDWGAHRCT-OH; cysteine pairing not given here) [Ac V4(1-Nal)/H9A —OH]	30
Ac-ICV(2-Igl)QDWGAHRCT-CONH2 (Ac-ICV[Igl]QDWGAHRCT-NH2; cysteine pairing not given here) [Ac-V42Igl/H9A]	39
Ac-ICV(2-Igl)QDWGAHRCT-COOH (Ac-ICV[Igl]QDWGAHRCT-OH; cysteine pairing not given here) [Ac-V42Igl/H9A —OH]	37
Ac-ICV(2-Nal)QDWGAHRCT-CONH2 (Ac-ICV[2Nal]QDWGAHRCT-NH2; cysteine pairing not given here) [Ac-V4(2-Nal)/H9A]	99
Ac-ICV(2-Nal)QDWGAHRCT-COOH (Ac-ICV[2Nal]QDWGAHRCT-OH; cysteine pairing not given here) [Ac V4(2-Nal)/H9A —OH]	38
Ac-ICV(5-methyl-W)QDWGAHRCT-CONH2 (Ac-ICV[Trp(5-Me)]QDWGAHRCT-NH2; cysteine pairing not given here) [Ac-V4(5-MeW)/H9A]	67
Ac-ICV(5fW)QD(5fW)GAHRCT-CONH2 (Ac-ICV[Trp(5-F)]QD[Trp(5-F)]GAHRCT-NH2; cysteine pairing not given here) [Ac-V4(5fW)/W7(5fW)/H9A]	161
Ac-ICV(5fW)QDWGAHRCT-CONH2 (Ac-ICV[Trp(5-F)]QDWGAHRCT-NH2; cysteine pairing not given here) [Ac-V4(5fW)/H9A]	31
Ac-ICV(Bpa)QDWGAHRCT-CONH2 (Ac-ICV[Bpa]QDWGAHRCT-NH2; cysteine pairing not given here) [Ac-V4(Bpa)/H9A]	86
Ac-ICV(Bpa)QDWGAHRCT-COOH (Ac-ICV[Bpa]QDWGAHRCT-OH; cysteine pairing not given here) [Ac-V4(Bpa)/H9A —OH]	49
Ac-ICVDhtQDWGAHRCT-COOH (Ac-ICV[Dht]QDWGAHRCT-OH; cysteine pairing not given here) [Ac-V4Dht/H9A —OH]	5
Ac-ICVVQDWGHHRCT-CONH2 [Ac-compstatin]	3
Ac-ICVWQD(5fW)GAHRCT-CONH2 (Ac-ICVWQD[Trp(5-F)]GAHRCT-NH2; cysteine pairing not given here) [Ac-V4W/W7(5fW)/H9A]	121
Ac-ICVWQDWGAHRCT-CONH2 (Ac-ICVWQDWGAHRCT-NH2; cysteine pairing not given here) [Ac-V4W/H9A]	45
Ac-ICVWQDWGAHRCdT-COOH [Ac-V4W/H9A/T13dT —OH]	55
Ac-ICVYQDWGAHRCT-CONH2 [Ac-V4Y/H9A]	14
H-GICV(6fW)QD(6fW)GAHRCTN-COOH (H-GICV[Trp(6-F)]QD[Trp(6-F)]GAHRCTN-OH; cysteine pairing not given here) [+G/V4(6fW)/W7(6fW)H9A +N —OH]	126
